# In US20020072606A1, “Chemokine receptor antagonists” (Warner-Lambert Company, priority 1999, published 2002):
# Counter-ions that a name gives are not always drawn.
row,melting point,SMILES
1,125 to 130 °C,"COc1cccc(/C=C2\CC3CN4CCc5c([nH]c6ccccc56)[C@]4(C)CC3CC2=O)c1 (stereo partly drawn) [Example 19, [4aR-[(E),4aα, 13bβ,14aβ]]3-(3-Methoxy-benzylidene)-13b-methyl-3,4,4a, 5,7,8,13,13b,14,14a-decahydro-1H-indolo[2′,3′:3,4]pyrido[1,2-b]-isoquinolin-2-one]"
2,211 to 213 °C,"C=CC[C@@]12CC3C[C@H](O)/C(=C/c4ccccc4)CC3CN1CCc1c2[nH]c2ccccc12 (stereo partly drawn) [Example 10, [2S-(2α,4aα,13β,14aα)]-13b-Allyl-3-benzylidene-1,2,3,4,4a,5,7,8,13,13b,14,14a-dodecahydro-indolo[2′,3′:3,4]pyrido[1,2-b]isoquinolin-2-ol]"
3,110 to 120 °C,"COc1cc(/C=C2\CC3CN4CCc5c([nH]c6ccccc56)[C@]4(C)CC3CC2=O)cc(OC)c1 (stereo partly drawn) [Example 20, [4aR-[(E),4aα,13bβ, 14aβ]]-3-(3,5-Dimethoxy-benzylidene)-13b-methyl-3,4,4a,5,7,8,13,13b,14,14a-decahydro-1H-indolo[2′,3′:3,4]pyrido[1,2-b]-isoquinolin-2-one]"
4,142 to 145 °C,"C[C@@]12CC3CC(=NO)/C(=C/c4ccccc4)CC3CN1CCc1c2[nH]c2ccccc12 (stereo partly drawn) [Example 27, [4aR-[(E),4aα,13bβ,14aβ]]-3-Benzylidene-13b-methyl-3,4,4a,5,7,8,13,13b,14,14a-decahydro-1H-indolo[2′,3′:3,4]pyrido[1 ,2-b]-isoquinolin-2-one oxime]"
5,128 to 132 °C,"COc1cc(/C=C2\CC3CN4CCc5c([nH]c6ccccc56)[C@]4(C)CC3C[C@@H]2O)cc(OC)c1 (stereo partly drawn) [Example 24, [2R-[2α(E),4aα,13bβ,14aβ]]-3-(3,5-Dimethoxy-benzylidene)-13b-methyl-1,2,3,4,4a,5,7,8,13,13b,14,14a-dodecahydro-indolo[2′,3′:3,4]pyrido[1,2-b]-isoquinolin-2-ol]"
6,235 °C (dec.),"CCCC[C@@]12CC3C[C@H](O)CCC3CN1CCc1c2[nH]c2ccccc12 (stereo partly drawn) [Example 1, [2R-(2α,4aα,13β,14aβ)]-13b-Butyl-1,2,3,4,4a,5,7,8,13,13b,14,14a-dodecahydro-indolo[2′,3′:3,4]pyrido[1,2-b]isoquinolin-2-ol]"
7,140 to 145 °C,"C[C@@]12CC3CC(=O)/C(=C/c4ccc(Cl)c(Cl)c4)CC3CN1CCc1c2[nH]c2ccccc12 (stereo partly drawn) [Example 21, [4aR-[(E),4aα,13bβ, 14aβ]]-3-(3,4-Dichloro-benzylidene)-13b-methyl-3,4,4a,5,7,8,13,13b,14,14a-decahydro-1H-indolo[2′,3′:3,4]pyrido[1,2-b]-isoquinolin-2-one]"
8,224 to 226 °C,"CCC[C@@]12CC3C[C@H](O)/C(=C/c4ccccc4)CC3CN1CCc1c2[nH]c2ccccc12 (stereo partly drawn) [Example 11, [2S-(2α,4aα,13β, 14aβ)]-3-Benzylidine-13b-propyl-1,2,3,4,4a,5,7,8,13,13b,14,14a-dodecahydro-indolo[2′,3′:3,4]pyrido[1,2-b]-isoquinolin-2-ol]"
9,203 to 210 °C,"C[C@@]12CC3CC(N)/C(=C/c4ccccc4)CC3CN1CCc1c2[nH]c2ccccc12 (stereo in doubt) (as salt: trifluoroacetic acid salt) [Example 28, 3-Benzylidene-13b-methyl-1,2,3,4,4a,5,7,8,13,13b,14,14a-dodecahydro-indolo[2′,3′: 3,4]pyrido[1,2-b]isoquinolin-2-ylamine]"
10,125 to 130 °C,"C[C@@]12CC3C[C@H](O)/C(=C/c4ccc(Cl)c(Cl)c4)CC3CN1CCc1c2[nH]c2ccccc12 (stereo partly drawn) [Example 25, [2R-[2α(E),4aα,13bβ, 14aβ]]-3-(3,4-Dichloro-benzylidene)-13b-methyl-1,2,3,4,4a,5,7,8,13,13b,14,14a-dodecahydro-indolo[2′,3′:3,4]pyrido[1,2-b]-isoquinolin-2-ol]"
11,195 °C (dec.),"CCC[C@@]12CC3C[C@H](O)CCC3CN1CCc1c2[nH]c2ccccc12 (stereo partly drawn) [Example 3, [2R-(2α,4aα,13β,14aβ)]-13b-Propyl-1,2,3,4,4a,5,7,8,13,13b,14,14a-dodecahydro-indolo[2′,3′:3,4]pyrido[1,2-b]isoquinolin-2-ol]"

# Second part, the compound before the results:
row,SMILES,melting point
1,"C=CC[C@@]12CC3C[C@H](O)CCC3CN1CCc1c2[nH]c2ccccc12 (stereo partly drawn) [Example 2, [2R-(2α,4aα, 13β,14aβ)]-13b-Allyl-1,2,3,4,4a,5,7,8,13,13b,14,14a-dodecahydro-indolo[2′,3′:3,4]pyrido[1,2-b]isoquinolin-2-ol]",228 to 230 °C
2,"CCC[C@@]12CC3CC(=O)CCC3CN1CCc1c2[nH]c2ccccc12 (stereo partly drawn) [Example 6, [2R-(2α,4aα, 13β, 14aβ)]-13b-Propyl-3,4,4a,5,7,8,13,13b,14,14a-decahydro-1H-indolo[2′,3′;3,4]pyrido[1,2-b]isoquinolin-2-one]",255 °C (dec.)
3,"COc1ccc(/C=C2\CC3CN4CCc5c([nH]c6ccccc56)[C@]4(C)CC3C[C@@H]2O)cc1OC (stereo partly drawn) [Example 22, [2R-[2α(E),4aα, 13bβ, 14aβ]]-3-(3,4-Dimethoxy-benzylidene)-13b-methyl-1,2,3,4,4a,5,7,8,13,13b,14,14a-dodecahydro-indolo[2′,3′:3,4]pyrido[1,2-b]-isoquinolin-2-ol]",118 to 121 °C
4,"C=CC[C@@]12CC3CC(=O)CCC3CN1CCc1c2[nH]c2ccccc12 (stereo partly drawn) [Example 5, [2R-(2α,4aα,13β,14aβ)]-13b-Allyl-3,4,4a,5,7,8,13,13b,14,14a-decahydro-1H-indolo[2′,3′:3,4]pyrido[1,2-b]isoquinolin-2-one]",220 to 223 °C
5,"CCCC[C@@]12CC3C[C@H](O)/C(=C/c4ccccc4)CC3CN1CCc1c2[nH]c2ccccc12 (stereo partly drawn) [Example 12, [2S-(2α,4aα,13β,14aβ)]-3-Benzylidine-13b-butyl-1,2,3,4,4a,5,7,8,13,13b,14,14a-dodecahydro-1-indolo[2′,3′:3,4]pyrido[1,2-b]-isoquinolin-2-ol]",222 to 225 °C
6,COc1cccc(/C=C2\CC3CN4CCc5c([nH]c6ccccc56)[C@]4(C)CC3C[C@@H]2O)c1 (stereo partly drawn) [Example 23],140 to 142 °C
7,"COc1ccc(/C=C2\CC3CN4CCc5c([nH]c6ccccc56)[C@]4(C)CC3CC2=O)cc1OC (stereo partly drawn) [Example 18, [4aR-[(E),4aα, 13bβ, 14aβ]]-3-(3,4-Dimethoxy-benzylidene)-13b-methyl-3,4,4a,5,7,8,13,13b,14,14a-decahydro-1H-indolo[2′,3′:3,4]pyrido[1,2-b]-isoquinolin-2-one]",120 to 125 °C
